Laboratory results: ChEMBL document CHEMBL4190222, “Sulawesins A-C, Furanosesterterpene Tetronic Acids That Inhibit USP7, from a Psammocinia sp. Marine Sponge” (J Nat Prod, 2017)
Active and inactive are the calls of the source. The rule behind the calls is not given here.

Tests used:
[1] = target: T1, Ubiquitin carboxyl-terminal hydrolase 7 (Homo sapiens, UniProt Q93009); test: Inhibition of recombinant His6-tagged human USP7 expressed in insect expression system […] using ubiquitin-Rh110 as substrate preincubated for 30 mins followed by substrate addition measured after 180 mins by fluorescence assay
Target sequence in this assay (Q93009 whole entry, looked up): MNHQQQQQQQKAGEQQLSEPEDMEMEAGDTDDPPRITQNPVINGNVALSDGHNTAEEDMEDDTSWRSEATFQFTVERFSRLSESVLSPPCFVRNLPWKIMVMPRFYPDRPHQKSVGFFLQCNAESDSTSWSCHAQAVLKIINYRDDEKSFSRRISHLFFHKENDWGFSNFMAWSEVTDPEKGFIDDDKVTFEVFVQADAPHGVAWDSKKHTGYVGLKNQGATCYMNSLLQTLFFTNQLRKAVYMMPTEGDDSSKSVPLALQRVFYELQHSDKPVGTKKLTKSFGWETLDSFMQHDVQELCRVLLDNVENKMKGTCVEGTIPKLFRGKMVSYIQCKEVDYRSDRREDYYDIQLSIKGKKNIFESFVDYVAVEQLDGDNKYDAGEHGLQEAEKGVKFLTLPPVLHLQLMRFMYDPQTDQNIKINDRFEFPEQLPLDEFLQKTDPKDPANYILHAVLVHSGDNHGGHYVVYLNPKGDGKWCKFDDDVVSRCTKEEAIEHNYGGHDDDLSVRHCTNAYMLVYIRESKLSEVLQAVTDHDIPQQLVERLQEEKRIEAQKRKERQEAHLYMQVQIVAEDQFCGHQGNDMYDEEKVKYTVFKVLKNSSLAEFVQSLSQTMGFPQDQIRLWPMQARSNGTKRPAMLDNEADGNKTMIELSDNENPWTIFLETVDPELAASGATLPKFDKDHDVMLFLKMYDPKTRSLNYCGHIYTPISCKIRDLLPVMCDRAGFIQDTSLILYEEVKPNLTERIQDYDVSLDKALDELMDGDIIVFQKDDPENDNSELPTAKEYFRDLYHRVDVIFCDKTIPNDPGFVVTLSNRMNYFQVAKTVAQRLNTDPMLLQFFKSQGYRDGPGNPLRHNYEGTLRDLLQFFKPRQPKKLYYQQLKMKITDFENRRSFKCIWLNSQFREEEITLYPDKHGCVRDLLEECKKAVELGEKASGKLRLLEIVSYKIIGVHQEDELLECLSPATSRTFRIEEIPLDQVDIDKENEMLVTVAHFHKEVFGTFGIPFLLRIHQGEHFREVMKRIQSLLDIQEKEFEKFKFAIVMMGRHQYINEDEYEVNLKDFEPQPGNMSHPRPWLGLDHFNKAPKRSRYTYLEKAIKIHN

[2] = target: T1, Ubiquitin carboxyl-terminal hydrolase 7; test: Inhibition of recombinant His6-tagged human USP7 expressed in insect expression system using ubiquitin-Rh110 as substrate preincubated for 30 mins followed by substrate addition measured after 180 mins by fluorescence assay
Target sequence in this assay (Q93009 whole entry): as the sequence (Q93009 whole entry, looked up) above

Compound	inhibition [1]	IC50 [2] [µM]
CC1=C(O)/C(=C/C(C)CC/C=C(/C)CCCC2=CC(=O)[C@@H](c3ccoc3)[C@@H]2O)OC1=O (mixture of isomers)		4.6
CC1=C(O)/C(=C/C(C)CCC/C(C)=C/CCC2=CC(=O)[C@@H](c3ccoc3)[C@@H]2O)OC1=O (mixture of isomers)		2.8
CC1=C(O)/C(=C/C(C)CCC/C(C)=C/CCc2coc(Cc3ccoc3)c2)OC1=O (racemic)		2.7

Further lines, results first:

inhibition [1]	IC50 [2] [µM]	Compound
Active		CCN1C(=O)C=CC1=O
	3.5	CC1=C(O)/C(=C/C(C)CC/C=C(/C)CCCc2coc(Cc3ccoc3)c2)OC1=O (mixture of isomers)
